# System: patients with postpartum depression (PPD)
# Assay: Clinical trial, inhaled 5-MeO-DMT individualized dosing regimen in postpartum depression (one patient so far)
# Protocol: The single-arm, open-label clinical trial will involve 15 adult female patients with clinically diagnosed postpartum depression (PPD).
# The second dose (12 mg) will only be administered if: • a. […] The 6 mg dose was safe and well-tolerated according to the investigator, • c. Any psychoactive effects (PsE) of the prior dose have subsided, and • d. Pre-dose vital parameters and forced expiratory volume in one second (FEV1) are in normal range, or if outside of the normal range, are not clinically significant according to the investigator. • 3. Similarly, a third dose (18 mg) will only be administered if: • a. […] The 12 mg dose was safe and well-tolerated according to the investigator, and • c. Any PsE of the prior dose have subsided, and • d. Pre-dose vital parameters and forced expiratory volume in one second (FEV1) are in normal range, or if outside of the normal range, are not clinically significant according to the investigator.
# The patients will be assessed for a peak psychedelic experience (based on a patient-scored visual analogue scale, the PE scale), sedation, and other endpoints after dosing. Follow-up visits are planned for Day 1, and Day 7 after the dosing day.
structure (smiles),measurement,setting,value
COc1ccc2[nH]cc(CCN(C)C)c2c1 [5-MeO-DMT],standard criteria for MADRS response (at least 50% improvement) and MADRS remission (total score equal or less than 10),,fulfilled
same,tolerability of the inhalation procedure,,well tolerated with no inhalation-related adverse events
same,MADRS Concentration Difficulties improvement,"2 hr, baseline 0",0
same,MADRS Concentration Difficulties score,"2 hr, baseline 0",0
same,MADRS Reduced appetite improvement,"2 hr, baseline 0",0
same,MADRS Reduced appetite score,"2 hr, baseline 0",0
same,MADRS Suicidal Thoughts improvement,"2 hr, baseline 0",0
same,MADRS Suicidal Thoughts score,"2 hr, baseline 0",0
same,MADRS Inability to Feel improvement,"2 hr, baseline 3",3
same,MADRS Inability to Feel score,"2 hr, baseline 3",0
same,MADRS Lassitude improvement,"2 hr, baseline 3",3
same,MADRS Lassitude score,"2 hr, baseline 3",0
same,MADRS Pessimistic Thoughts improvement,"2 hr, baseline 4",4
same,MADRS Pessimistic Thoughts score,"2 hr, baseline 4",0
same,MADRS Reported sadness improvement,"2 hr, baseline 4",4
same,MADRS Reported sadness score,"2 hr, baseline 4",0
same,MADRS Apparent sadness improvement,"2 hr, baseline 5",5
same,MADRS Apparent sadness score,"2 hr, baseline 5",0
same,MADRS Inner Tension improvement,"2 hr, baseline 5",5
same,MADRS Inner Tension score,"2 hr, baseline 5",0
same,MADRS Reduced Sleep improvement,"2 hr, baseline 5",0
same,MADRS Reduced Sleep score,"2 hr, baseline 5",5
same,reported adverse events (cramping left abdominal pain and headache),Day 0,"mild, short-lasting and resolved spontaneously"
same,MADRS Concentration Difficulties improvement,"Day 1, baseline 0",0
same,MADRS Concentration Difficulties score,"Day 1, baseline 0",0
same,MADRS Reduced appetite improvement,"Day 1, baseline 0",0
same,MADRS Reduced appetite score,"Day 1, baseline 0",0
same,MADRS Suicidal Thoughts improvement,"Day 1, baseline 0",0
same,MADRS Suicidal Thoughts score,"Day 1, baseline 0",0
same,BPRS Blunted affect improvement,"Day 1, baseline 1",0
same,BPRS Blunted affect score,"Day 1, baseline 1",1
same,BPRS Conceptual disorganization improvement,"Day 1, baseline 1",0
same,BPRS Conceptual disorganization score,"Day 1, baseline 1",1
same,BPRS Disorientation improvement,"Day 1, baseline 1",0
same,BPRS Disorientation score,"Day 1, baseline 1",1
same,BPRS Grandiosity improvement,"Day 1, baseline 1",0
same,BPRS Grandiosity score,"Day 1, baseline 1",1
same,BPRS Hallucinatory behaviour improvement,"Day 1, baseline 1",0
same,BPRS Hallucinatory behaviour score,"Day 1, baseline 1",1
same,BPRS Hostility improvement,"Day 1, baseline 1",0
same,BPRS Hostility score,"Day 1, baseline 1",1
same,BPRS Mannerisms and Posturing improvement,"Day 1, baseline 1",0
same,BPRS Mannerisms and Posturing score,"Day 1, baseline 1",1
same,BPRS Motor retardation improvement,"Day 1, baseline 1",0
same,BPRS Motor retardation score,"Day 1, baseline 1",1
same,BPRS Suspiciousness improvement,"Day 1, baseline 1",0
same,BPRS Suspiciousness score,"Day 1, baseline 1",1
same,BPRS Uncooperativeness improvement,"Day 1, baseline 1",0
same,BPRS Uncooperativeness score,"Day 1, baseline 1",1
same,BPRS Unusual Thought Content improvement,"Day 1, baseline 1",0
same,BPRS Unusual Thought Content score,"Day 1, baseline 1",1
same,BPRS Excitement improvement,"Day 1, baseline 2",1
same,BPRS Excitement score,"Day 1, baseline 2",1
same,MADRS Inability to Feel improvement,"Day 1, baseline 3",3
same,MADRS Inability to Feel score,"Day 1, baseline 3",0
same,MADRS Lassitude improvement,"Day 1, baseline 3",3
same,MADRS Lassitude score,"Day 1, baseline 3",0
same,MADRS Pessimistic Thoughts improvement,"Day 1, baseline 4",4
same,MADRS Pessimistic Thoughts score,"Day 1, baseline 4",0
same,MADRS Reported sadness improvement,"Day 1, baseline 4",4
same,MADRS Reported sadness score,"Day 1, baseline 4",0
same,BPRS Emotional withdrawal improvement,"Day 1, baseline 5",4
same,BPRS Emotional withdrawal score,"Day 1, baseline 5",1
same,MADRS Apparent sadness improvement,"Day 1, baseline 5",5
same,MADRS Apparent sadness score,"Day 1, baseline 5",0
same,MADRS Inner Tension improvement,"Day 1, baseline 5",5
same,MADRS Inner Tension score,"Day 1, baseline 5",0
same,MADRS Reduced Sleep improvement,"Day 1, baseline 5",5
same,MADRS Reduced Sleep score,"Day 1, baseline 5",0
same,BPRS Depressive Mood improvement,"Day 1, baseline 6",5
same,BPRS Depressive Mood score,"Day 1, baseline 6",1
same,BPRS Guilt feelings improvement,"Day 1, baseline 6",5
same,BPRS Guilt feelings score,"Day 1, baseline 6",1
same,BPRS Somatic Concern improvement,"Day 1, baseline 6",5
same,BPRS Somatic Concern score,"Day 1, baseline 6",1
same,BPRS Tension improvement,"Day 1, baseline 6",5
same,BPRS Tension score,"Day 1, baseline 6",1
same,BPRS Anxiety improvement,"Day 1, baseline 7",6
same,BPRS Anxiety score,"Day 1, baseline 7",1
same,BIMF item 2 (I feel rested) score,"Day 7, Day 0 score 0",2
same,"BIMF item 19 (As time goes on, I am getting better at taking care of my baby) score","Day 7, Day 0 score 0",1
same,BIMF item 18 (Anxiety or worry often interferes with my mothering ability) score,"Day 7, Day 0 score 2",5
same,BIMF item 13 (I am taking good care of my physical needs) score,"Day 7, Day 0 score 4",5
same,BIMF item 4 (My baby and I understand each other) score,"Day 7, Day 0 score 5",5
same,BIMF item 5 (I am able to relax and enjoy time with my baby) score,"Day 7, Day 0 score 5",6
same,BIMF item 9 (I am getting enough encouragement from other people) score,"Day 7, Day 0 score 5",6
same,BIMF item 10 (I trust my own feelings (instincts) when it comes to taking care of my baby) score,"Day 7, Day 0 score 5",6
same,BIMF item 15 (My baby and I are getting into a routine) score,"Day 7, Day 0 score 5",6
same,BIMF item 17 (I am able to take care of my baby and my other responsibilities) score,"Day 7, Day 0 score 5",5
same,BIMF item 1 (I am a good mother) score,"Day 7, Day 0 score 6",6
same,BIMF item 3 (I am comfortable with the way I've chosen to feed my baby) score,"Day 7, Day 0 score 6",6
same,BIMF item 6 (There are people in my life that I can trust to care for my baby when I need a break) score,"Day 7, Day 0 score 6",6
same,BIMF item 8 (I am getting enough adult interaction) score,"Day 7, Day 0 score 6",6
same,BIMF item 12 (I am taking good care of my baby's physical needs) score,"Day 7, Day 0 score 6",6
same,BIMF item 14 (I make good decisions about my baby's health and well being) score,"Day 7, Day 0 score 6",6
same,BIMF item 20 (I am satisfied with the job I am doing as a new mother) score,"Day 7, Day 0 score 6",5
same,MADRS Concentration Difficulties improvement,"Day 7, baseline 0",0
same,MADRS Concentration Difficulties score,"Day 7, baseline 0",0
same,MADRS Reduced appetite improvement,"Day 7, baseline 0",0
same,MADRS Reduced appetite score,"Day 7, baseline 0",0
same,MADRS Suicidal Thoughts improvement,"Day 7, baseline 0",0
same,MADRS Suicidal Thoughts score,"Day 7, baseline 0",0
same,BPRS Blunted affect improvement,"Day 7, baseline 1",0
same,BPRS Blunted affect score,"Day 7, baseline 1",1
same,BPRS Conceptual disorganization improvement,"Day 7, baseline 1",0
same,BPRS Conceptual disorganization score,"Day 7, baseline 1",1
same,BPRS Disorientation improvement,"Day 7, baseline 1",0

# — patent publication US20250235427A1, “5-METHOXY-N,N-[…][…] THE TREATMENT OF SOCIAL/EMOTIONAL […] DETACHMENT” (GH RESEARCH IRELAND LIMITED, priority 2022, published 2025)
